Earlier results, collected in US20240216401A1, “COMBINATION THERAPY BY USING AKR1C3-ACTIVATED COMPOUND WITH IMMUNE CHECKPOINT INHIBITOR” (OBI Pharma, Inc., priority 2021, published 2024).

Tested on: tumor
Settings: in vitro and in vivo; references 6, 21; cited from earlier work

In the case of `CS(=O)(=O)OCCN(CCBr)c1c(C(=O)NCCOP(=O)(O)O)cc([N+](=O)[O-])cc1[N+](=O)[O-]` [PR104], the “anti-tumor activity (in words)” value is given as “good anti-tumor activity”.
